These results are taken from US20100185419A1, “ALGORITHM FOR DESIGNING IRREVERSIBLE INHIBITORS” (Avila Therapeutics, Inc., priority 2008, published 2010).

In one test the target is T1, HCV NS3/4A wild type (Hepatitis C virus genotype 1b, UniProt P26662).
T1 construct: The single-chain proteolytic domain (NS4A21-32-GSGS-NS33-631) was cloned into pET-14b; His tag; made in house; host or cells: Escherichia coli BL21
Description: Mass spectral analysis of intact HCV NS3/4A wild type protease. The settings on record: 10-fold excess of compound, 1 hr to 3 hrs, MALDI-TOF. Format: binding. How it is done:
Mass spectrometric analysis of HCV in the presence of Compound 5 was performed using the following protocol: HCV NS3/4A wild type (wt) was incubated for 1 hr at a 10× fold access of Compound 5 to protein. 2 μl aliquots of the samples were diluted with 10 μl of 0.1% TFA prior to micro C4 ZipTipping directly onto the MALDI target using Sinapinic acid as the desorption matrix (10 mg/ml in 0.1% TFA:Acetonitrile 50:50). The instrument was set in linear mode using a pulsed extraction setting of 24,500 and apomyoglobin as the standard to calibrate the instrument.
100 pmols of HCV wild type (Bioenza CA) was incubated with compound for 1 hr and 3 hrs at 10-fold access of Compound 6 to protein. 1 μl aliquots of the samples (total volume of 4.24 ul) were diluted with 10 μl of 0.1% TFA prior to micro C4 ZipTipping directly onto the MALDI target using Sinapinic acid as the desorption matrix (10 mg/ml in 0.1% TFA:Acetonitrile 50:50). Analyses were performed on a Shimadzu Biotech Axima TOF^2 (Shimadzu Instruments) matrix-assisted-laser desorption/ionization Time-of-Flight (MALDI-TOF) mass spectrometer.

The target in another test is HCV NS3/4A 1b protease (Hepatitis C virus genotype 1b, UniProt P26662). Briefly: biochemical.
HCV NS3/4A 1b protease, sequence (P26662 1027-1208): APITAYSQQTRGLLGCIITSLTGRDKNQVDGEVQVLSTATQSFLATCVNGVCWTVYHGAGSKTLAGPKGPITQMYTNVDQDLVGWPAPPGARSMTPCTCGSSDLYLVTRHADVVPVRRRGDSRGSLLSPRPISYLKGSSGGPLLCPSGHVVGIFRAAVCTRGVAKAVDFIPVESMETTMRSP
HCV NS3/4A 1b protease, sequence (P26662 1658-1711): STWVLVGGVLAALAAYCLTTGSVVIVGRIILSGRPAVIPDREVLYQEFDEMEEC
Test [1] concerns the target T2, Flt3 (Homo sapiens, UniProt P36888).
T2 sequence (P36888 27-993): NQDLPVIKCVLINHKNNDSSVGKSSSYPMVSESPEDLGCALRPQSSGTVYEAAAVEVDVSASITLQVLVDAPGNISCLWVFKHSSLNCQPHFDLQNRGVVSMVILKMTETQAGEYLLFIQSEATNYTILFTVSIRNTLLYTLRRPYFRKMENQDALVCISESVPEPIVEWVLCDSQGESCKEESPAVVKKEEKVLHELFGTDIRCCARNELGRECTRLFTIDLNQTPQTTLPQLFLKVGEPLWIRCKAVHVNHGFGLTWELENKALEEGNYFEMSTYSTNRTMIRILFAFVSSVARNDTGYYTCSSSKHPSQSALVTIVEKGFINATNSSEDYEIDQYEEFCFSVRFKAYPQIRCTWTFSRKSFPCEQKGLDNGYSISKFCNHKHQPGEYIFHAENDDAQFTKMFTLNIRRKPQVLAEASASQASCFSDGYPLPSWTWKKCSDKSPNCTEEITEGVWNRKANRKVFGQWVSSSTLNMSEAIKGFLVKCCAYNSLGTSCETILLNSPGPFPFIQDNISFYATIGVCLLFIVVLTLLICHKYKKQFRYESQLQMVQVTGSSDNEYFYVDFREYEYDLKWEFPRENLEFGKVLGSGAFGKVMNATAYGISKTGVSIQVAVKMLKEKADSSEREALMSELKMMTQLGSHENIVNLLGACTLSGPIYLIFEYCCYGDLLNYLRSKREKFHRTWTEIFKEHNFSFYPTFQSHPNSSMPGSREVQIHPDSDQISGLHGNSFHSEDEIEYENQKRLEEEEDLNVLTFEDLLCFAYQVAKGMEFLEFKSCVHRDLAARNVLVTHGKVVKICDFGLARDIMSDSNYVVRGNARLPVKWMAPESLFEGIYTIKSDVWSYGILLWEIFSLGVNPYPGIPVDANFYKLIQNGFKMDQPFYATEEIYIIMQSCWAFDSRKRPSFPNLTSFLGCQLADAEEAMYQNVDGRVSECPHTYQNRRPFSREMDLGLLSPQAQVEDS
Description: Flt3 mass spectral analysis of tryptic digest. Format: binding. Conditions: 3 hrs at 100× excess, tryptic digest MALDI. How it is done: Flt3 was incubated with Compound 4 for 3 hrs at 100× excess prior to tryptic digestion. Iodoacetamide was used as the alkylating agent after compound incubation. For tryptic digests a 5 ul aliquot (7 pmols) was diluted with 10 ul of 0.1% TFA prior to micro C18 Zip Tipping directly onto the MALDI target using alpha cyano-4-hydroxy cinnamic acid as the matrix (5 mg/ml in 0.1% TFA:Acetonitrile 50:50).
The mass spec instrument was set in Reflectron mode with a pulsed extraction setting of 1800. Calibration was done using the Laser Biolabs Pep Mix standard (1046.54, 1296.69, 1672.92, 2093.09, 2465.20). For CID/PSD analysis the peptide was selected using cursors to set ion gate timing and fragmentation occurred at a laser power about 20% higher and He was used as the collision gas for CID. Calibration for fragments was done using the P14R fragmentation calibration for the Curved field Reflectron.

For test [2], the target named is T2, Flt3. Briefly: FLT3 biochemical assay (continuous-read kinase assay). More on the design: purchased Invitrogen PV3182. Conditions: 500 μM ATP; read-out: IC50 for inhibition of FLT3 phosphorylation.
The target of a further test is T3, Btk (Homo sapiens, UniProt Q06187).
T3 construct: purchased Invitrogen
T3 sequence (Q06187 whole entry): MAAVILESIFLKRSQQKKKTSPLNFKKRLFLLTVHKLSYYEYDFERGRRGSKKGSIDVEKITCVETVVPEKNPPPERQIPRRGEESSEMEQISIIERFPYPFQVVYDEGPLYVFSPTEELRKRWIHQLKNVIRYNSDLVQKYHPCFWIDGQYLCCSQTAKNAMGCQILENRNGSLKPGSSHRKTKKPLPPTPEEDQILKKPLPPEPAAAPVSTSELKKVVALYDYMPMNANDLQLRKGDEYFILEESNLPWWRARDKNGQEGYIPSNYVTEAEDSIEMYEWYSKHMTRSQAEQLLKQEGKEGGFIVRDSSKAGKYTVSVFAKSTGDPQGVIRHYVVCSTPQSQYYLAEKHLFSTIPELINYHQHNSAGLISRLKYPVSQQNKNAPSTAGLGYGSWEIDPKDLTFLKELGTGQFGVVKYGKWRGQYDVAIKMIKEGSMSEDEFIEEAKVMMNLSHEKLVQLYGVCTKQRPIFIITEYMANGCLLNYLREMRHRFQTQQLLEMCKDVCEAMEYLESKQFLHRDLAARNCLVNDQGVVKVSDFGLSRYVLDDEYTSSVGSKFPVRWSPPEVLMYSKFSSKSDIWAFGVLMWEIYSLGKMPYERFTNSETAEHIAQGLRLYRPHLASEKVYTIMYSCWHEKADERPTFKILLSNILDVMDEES
Description: Omnia assay for potency against Btk. The settings on record: biochemical assay; read-out: IC50 Btk kinase. How it is done:
The protocol below describes continuous-read kinase assays to measure inherent potency of compounds against active forms of Btk enzyme. The mechanics of the assay platform are best described by the vendor (Invitrogen, Carlsbad, Calif.) on the world wide web at invitrogen.com/site/us/en/home/Products-and-Services/Applications/Drug-Discovery/Target-and-Lead-Identification-and-Validation/KinaseBiology/KB-Misc/Biochemical-Assays/Omnia-Kinase-Assays.html. Briefly, 10× stocks of 5 nM Btk from Invitrogen, 1.13×40 μM ATP (AS001A) and 10 μM (ATP KMapp ˜[…]) Tyr-Sox conjugated peptide substrates (KCZ 1001) were prepared in 1× kinase reaction buffer consisting of 20 mM Tris, pH 7.5, 5 mM MgCl2, 1 mM EGTA, 5 mM β-glycerophosphate, 5% glycerol (10× stock, KBOO2A) and 0.2 mM DTT (DS001A).

The test system of test [3] is Btk signaling in Ramos cells. Briefly: Btk Ramos cellular assay (PLCγ2 phosphorylation). The format is cell-based. The settings on record: Homo sapiens, 1 μM compound. How it is done: Compounds CNX-85 was assayed in Ramos human Burkitt lymphoma cells. Ramos cells were grown in suspension in T225 flasks, spun down, resuspended in 50 mls serum-free media and incubated for 1 hour. Compound was added to Ramos cells in serum free media to a final concentration of 1, 0.1, 0.01, or 0.001 μM. Ramos cells were incubated with compound for 1 hour, washed again and resuspended in 100 ul serum-free media. Cells were then stimulated with 1 μg of goat F(ab′)2 Anti-Human IgM and incubated on ice for 10 minutes to activate B cell receptor signaling pathways. After 10 minutes, the cells were washed once with PBS and then lysed on ice with Invitrogen Cell Extraction buffer. 16 μg total protein from lysates were loaded on gel and blots were probed for phosphorylation of the Btk substrate PLCγ2.

T1 sequence (P26662 1013-1207, looked up, natural form): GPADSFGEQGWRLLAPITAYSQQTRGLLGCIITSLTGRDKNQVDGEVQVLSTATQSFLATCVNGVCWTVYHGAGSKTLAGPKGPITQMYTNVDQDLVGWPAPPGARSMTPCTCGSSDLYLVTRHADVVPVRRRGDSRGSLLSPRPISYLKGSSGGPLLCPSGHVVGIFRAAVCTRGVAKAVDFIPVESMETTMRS
Description for HCV NS3/4A 1b protease: An HCV Protease FRET Assay for HCV NS3/4A 1b Enzyme (IC50_APP) was used. The following protocol was used to generate “apparent” IC50 (IC50_APP) values. […] Protease reactions were immediately started after enzyme addition with the addition of 45 μL of the FRET substrate and monitored for 60-90 minutes at λex485/λem520 in a Synergy4 plate reader from BioTek (Winooski, Vt.).

On to `C=C[C@@H]1C[C@]1(NC(=O)[C@@H]1C[C@@H](Oc2cc(-c3ccccc3)nc3cc(OC)ccc23)CN1C(=O)[C@H](CCC(=O)C=C(C)C)NC(=O)OC(C)(C)C)C(=O)NS(=O)(=O)C1CC1` [Compound 8, tert-butyl-(S)-1-((2S,4R)-2-((1R,2S)-1-(cyclopropylsulfonylcarbamoyl)-2-vinylcyclopropylcarbamoyl)-4-(7-methoxy-2-phenylquinolin-4-yloxy)pyrrolidin-1-yl)-7-methyl-1,5-dioxooct-6-en-2-ylcarbamate], for which the “adduct formation with HCV protease wild type” value on HCV NS3/4A wild type was “adduct of HCV protease with the compound was formed”. This compound displayed an IC50 at HCV NS3/4A 1b protease of less than 0.5 nM.
Take `C=CC(=O)Nc1ccc(Sc2nc(Nc3cc(C)n[nH]3)cc(N3CCN(C)CC3)n2)cc1` [Compound 4, N-(4-(4-(3-Methyl-1H-pyrazol-5-ylamino)-6-(4-methylpiperiazin-1-yl)pyrimidin-2ylthio)phenyl)acrylamide]: the “covalent modification of Flt3 (modified peptide)” value at Flt3 [1] was “ICDFGLAR with Compound 4 attached”. Moreover, the IC50 at Flt3 [2] was 2.2 nM.
With `C=CC(=O)Nc1cccc(Nc2cc(Nc3ccc(Oc4ccccc4)cc3)ncn2)c1` [Compound 10, N-{3-[6-(4-phenoxyphenylamino)-pyrimidin-4-ylamino]phenyl}-2 propenamide], on Btk, the IC50 is 1.8 nM. In test [3], this compound returned an inhibition at 1 µM of 85%.

In general, IC50 refers to the concentration that gives 50% inhibition. For orientation: inhibition means how much of the control response was suppressed. A lower inhibition goes with a weak effect.
